According to US7078059B2, “Treatment of bone diseases” (Shire Holdings AG, priority 2000, dated 2006):
“And” between values parts separate entries of the source, which are not always exact repeats. Equal values may be shown once. “Also recorded” adds a separate entry of the source. Read-outs that look alike come from different tables or passages of the source.

Columns and labels:
[1] = tested on: osteoclast precursors in mouse bone marrow; details: for Relative TRAP 5b activities, Mean ± SD: relative to mean of baseline group, with 1,25-dihydroxyvitamin D3, 6 days; for Relative TRAP 5b activities, Mean ± SD / Combined results on osteoclast differentiation (relative TRAP 5b activity), Mean ± SD / Effect on osteoclast differentiation, in words: LA number = ng/ml lanthanum; for Combined results on osteoclast differentiation (relative TRAP 5b activity), Mean ± SD: tables 4-6 combined, number 18 (LA 100) or 12; for Osteoclast differentiation: significance of activation/inhibition vs baseline; for Effect on osteoclast differentiation, in words: vs baseline with 1,25-dihydroxyvitamin D3
Text: A method known as mouse bone marrow culture system is the one most widely used to study osteoclast differentiation. Originally, this method was developed by Takahashi et al. (1988a). Osteoclast precursors in mouse bone marrow can be induced to form multinucleated osteoclast-like cells (MNC) in the presence of either an active metabolite of vitamin D3 (1,25(OH)2D3) or parathyroid hormone (PTH). […] They form pits on bone or dentine slices (Takahashi et al. 1988a, Hattersley and Chambers 1989, Shinar et al. 1990); they express high levels of tartrate-resistant acid phosphatase (TRAP) and calcitonin receptors (Takahashi et al. 1988b, Shinar et al. 1990); and they respond to calcitonin (Takahashi et al. 1988a) and prostaglandin E2 (Collins and Chambers 1992). Thus, the method is an ideal one with which to study both stimulators and inhibitors of osteoclast differentiation.
In the original culture system, the osteoclast formation was determined after an 8-day culture. In bone marrow, both non-adherent osteoclast precursors and stromal cells are present, the latter of which are needed to support osteoclast formation. The number of osteoclasts formed is generally determined by counting the number of TRAP-positive MNC containing at least three nuclei (Takahashi et al. 1988a).
We have modified the original assay so that we culture 1×10^6 mouse marrow cells/ml for 6 days. […] Instead of counting of the number of differentiated osteoclasts formed, we measured the amount of TRAP liberated from osteoclasts into the culture medium using a fast, simple TRAP immunoassay (Halleen et al. 1999) presentation in the Annual Meeting of the American Society for Bone and Mineral Research, Sep. 30-Oct. 4, 1999, in St. Louis, Mo., USA.
8-10-week old mice were killed with CO2. Tibia and femora were dissected free from adhering soft tissues. The bone ends were cut off with a scalpel and the marrow was flushed with α-Minimal Essential Medium (α-MEM, Gibco BRL, Paisley, UK) supplemented with 100 IU/ml penicillin and 100 μg/ml streptomycin. A 10 ml syringe with a 27 gauge needle was used for flushing. Cells were centrifuged at 600×G for 10 minutes and the cell pellet was resuspended in -MEM containing 10% fetal calf serum. Cells were allowed to attach to plastic for 2 h at 37° C. in a 5% CO2 incubator to allow removal of monocytes and macrophages. Nonadherent cells were duly removed, and the […] bone marrow cells were cultured in 24-well plates (1×10^6 cells/well=1 ml) for 6 days. Half of the media were changed at day 3 and the treatments replaced. At the end of the culture, the plates were fixed with 2% paraformaldehyde in PBS for 20 minutes. Osteoclast formation was determined by measuring TRAP activity from the culture media using the novel TRAP immunoassay (vide infra), where we use a polyclonal TRAP antiserum prepared in rabbits against purified human bone TRAP. The TRAP antibody was bound to anti-rabbit IgG coated microtiter wells (Gibco BRL, Paisley, UK), and medium TRAP was then bound to the antibody. The activity of bound TRAP was measured in sodium acetate buffer using pNPP as substrate.
In this study, the effect of the lanthanum (III) ion on osteoclast differentiation in the presence of 1,25-dihydroxyvitamin D3 was tested. The following sample groups were included: • Baseline (including vehicle) • Control (Baseline without 1,25-dihydroxyvitamin D3) • Baseline+100 ng/ml lanthanum • Baseline+500 ng/ml lanthanum • Baseline+1000 ng/ml lanthanum • Baseline+5000 ng/ml lanthanum • Baseline+15000 ng/ml lanthanum
Six replicates were included in each group, and the test was performed twice. Baseline without 1,25-dihydroxyvitamin D3 was used as a control to show the test system allows inhibition of osteoclast differentiation to be detected.

[2] = tested on: mouse bone marrow derived osteoprogenitor cells; test: In vitro osteoblast differentiation assay (cellular alkaline phosphatase); format: cell-based; details: for Relative specific activities of intracellular alkaline phosphatase, Mean ± SD / Relative specific activities of intracellular alkaline phosphatase, replicates 1-8 / Relative specific activities of intracellular alkaline phosphatase, replicates 1-4 / Relative specific activities or intracellular alkaline phosphatase, Mean ± SD / Relative specific activities or intracellular alkaline phosphatase, replicates 1-6: relative to mean of baseline group, 8 days; for Relative specific activities of intracellular alkaline phosphatase, Mean ± SD / Relative specific activities of intracellular alkaline phosphatase, replicates 1-8 / Relative specific activities of intracellular alkaline phosphatase, replicates 1-4 / Relative specific activities or intracellular alkaline phosphatase, Mean ± SD / Relative specific activities or intracellular alkaline phosphatase, replicates 1-6 / Combined results on osteoblast differentiation (relative specific ALP activity), Mean ± SD: Control = Baseline+10^−10 M 17-estradiol; for Relative specific activities or intracellular alkaline phosphatase, Mean ± SD / Relative specific activities or intracellular alkaline phosphatase, replicates 1-6: second osteoblast differentiation assay; for Combined results on osteoblast differentiation (relative specific ALP activity), Mean ± SD: tables 8-10 combined, number 18; for Osteoblast differentiation: significance of activation/inhibition vs baseline
Text: We have established a culture model in which mouse bone marrow derived osteoprogenitor cells first proliferate and then differentiate to osteoblasts capable of forming mineralized bone nodules (Qu et al. 1998, Qu et al. 1999). We confirmed this by following the expression of several markers of the osteoblastic phenotype and by studying the morphology of cultures at light and electron microscopic level. […] Thus, this culture system fulfills requirements of an in vitro model useful for studying differentiation of osteoprogenitor cells into bone synthesizing osteoblasts. […] Animals were killed by cervical dislocation. Both femora were removed and the soft tissues were detached aseptically. Metaphyses from both ends were cut off and bone marrow cells were collected by flushing the diaphysis with culture medium: phenol red-free-α-modified essential medium (α-MEM (Gibco BRL, Paisley, UK)). […] The cells were cultured for 6 days and half of the media […] days. […] Cells were washed with warm PBS and adherent cells were detached using trypsin-EDTA. […] The test substances were added at the beginning of the secondary culture without estrogen, and every time when the medium was changed. The number of osteoblasts formed was determined by measuring cellular alkaline phosphatase (ALP) activity in the culture. […] Louis, Mo., USA), and overnight freezing. ALP activity was determined colorimetrically using p-nitrophenylphosphate as substrate at pH 9.7 and determining the optical density at 405 nm. In parallel, protein contents of the wells were determined by the BIO-RAD protein assay, and the specific ALP activity is expressed as units/mg protein. […] Osteoblast differentiation was determined by measuring cellular alkaline phosphatase (ALP) activities and total protein amounts from cell lysates. The ALP activities were divided with the corresponding protein amounts to obtain specific activities of ALP. The results are shown as relative specific activities obtained by dividing each individual value with the mean value of the baseline group.

[3] = first osteoclast differentiation assay
[4] = second osteoclast differentiation assay
[5] = LA number = ng/ml lanthanum, lanthanum (III) ion = 100-15000 ng/ml, 17-estradiol 10^−10 M
[6] = first osteoblast differentiation assay, LA number = ng/ml lanthanum
[7] = preliminary osteoblast differentiation assay, LA number = ng/ml lanthanum

Structure (SMILES) | Relative TRAP 5b activities, Mean ± SD [1, 3] | Relative TRAP 5b activities, Mean ± SD [1, 4] | Combined results on osteoclast differentiation (relative TRAP 5b activity), Mean ± SD [1] | Effect on osteoblast differentiation, in words [2, 5] | Relative specific activities of intracellular alkaline phosphatase, Mean ± SD [2, 6] | Relative specific activities of intracellular alkaline phosphatase, replicates 1-8 [2, 6] | Relative specific activities of intracellular alkaline phosphatase, Mean ± SD [2, 7] | Relative specific activities of intracellular alkaline phosphatase, replicates 1-4 [2, 7] | Relative specific activities or intracellular alkaline phosphatase, Mean ± SD ([2]; LA number = ng/ml lanthanum) | Relative specific activities or intracellular alkaline phosphatase, replicates 1-6 ([2]; LA number = ng/ml lanthanum) | Combined results on osteoblast differentiation (relative specific ALP activity), Mean ± SD ([2]; LA number = ng/ml lanthanum) | Effect on osteoclast differentiation, in words [1] | further results
O.O.O.O.O=C([O-])[O-].O=C([O-])[O-].O=C([O-])[O-].[La+3].[La+3] [LA 5000, lanthanum carbonate tetrahydrate] | 0.44 ± 0.06(*) | 0.56 ± 0.27(*) | 0.50 ± 0.20 (***) | inhibited | 0.53 ± 0.06(***) | 0.54 and 0.59 and 0.55 | 0.47 ± 0.03(***) | 0.42 and 0.46 and 0.50 and 0.48 | 0.41 ± 0.10(***) | 0.31 and 0.51 (2×) and 0.49 and 0.28 and 0.40 | 0.48 ± 0.09 (***) |  | 
O.O.O.O.O=C([O-])[O-].O=C([O-])[O-].O=C([O-])[O-].[La+3].[La+3] [LA 500, lanthanum carbonate tetrahydrate] | 0.71 ± 0.22 | 1.07 ± 0.24 | 0.89 ± 0.29 | No significant response; also recorded: do not decrease the formulation of osteoblasts | 0.90 ± 0.14 | 0.95 and 0.96 and 0.62 | 1.01 ± 0.07 | 0.96 and 0.98 and 0.99 and 1.11 | 0.93 ± 0.14 | 0.88 and 0.89 and 1.10 and 1.09 and 0.75 and 0.90 | 0.94 ± 0.13 |  | 
O.O.O.O.O=C([O-])[O-].O=C([O-])[O-].O=C([O-])[O-].[La+3].[La+3] [LA, lanthanum carbonate tetrahydrate] |  |  |  | clear dose-dependent response |  |  |  |  |  |  |  | inhibits osteoclast differentiation | Osteoclast differentiation ([1]; Dose 100 ng/ml): − −; Osteoclast differentiation ([1]; Dose 500 ng/ml): 0; Osteoclast differentiation ([1]; Dose 1000 ng/ml): − −; Osteoclast differentiation ([1]; Dose 5000 ng/ml): − − −; Osteoclast differentiation ([1]; Dose 15000 ng/ml): − − −; Effect on osteoblast differentiation, in words ([2]; 100 ng/ml lanthanum): stimulate osteoblast differentiation; Osteoblast differentiation ([2]; Dose 100 ng/ml): + (One character (+ or −) means a p-value between 0.05 and 0.01); Osteoblast differentiation ([2]; Dose 500 ng/ml): 0; Osteoblast differentiation ([2]; Dose 1000 ng/ml): 0; Osteoblast differentiation ([2]; Dose 5000 ng/ml): − − −; Osteoblast differentiation ([2]; Dose 15000 ng/ml): − − −
O.O.O.O.O=C([O-])[O-].O=C([O-])[O-].O=C([O-])[O-].[La+3].[La+3] [LA 15000, lanthanum carbonate tetrahydrate] | 0.36 ± 0.27(*) | 0.25 ± 0.07(***) | 0.30 ± 0.19 (***) | inhibited | 0.40 ± 0.07(***) | 0.39 and 0.35 and 0.43 | 0.50 ± 0.03(***) | 0.51 and 0.49 and 0.47 and 0.54 | 0.28 ± 0.07(***) | 0.27 and 0.13 and 0.33 and 0.32 and 0.29 and 0.31 | 0.38 ± 0.11 (***) |  | 
O.O.O.O.O=C([O-])[O-].O=C([O-])[O-].O=C([O-])[O-].[La+3].[La+3] [LA 1000, lanthanum carbonate tetrahydrate] | 0.60 ± 0.25 | 0.69 ± 0.21 | 0.65 ± 0.23 (**) | No significant response; also recorded: do not decrease the formulation of osteoblasts | 0.94 ± 0.14 | 1.01 and 0.78 and 0.81 | 0.94 ± 0.19 | 0.69 and 1.13 and 0.92 and 1.01 | 0.88 ± 0.21 | 0.73 and 0.71 and 1.19 and 0.81 and 0.72 and 1.09 | 0.92 ± 0.17 | decreases the formation of osteoclasts | 
